Measured values: PubChem BioAssay AID256 (DTP/NCI, 2004)
Values joined by “and” are separate entries in the source; they are usually repeats but may differ in a detail not shown here. Equal values may be shown once. Toxic doses and inconclusive results are not listed. Rule for the calls: active = survival T/C of 150% or more; inactive = T/C below 125% in these data.

Test system: CD2F1 mice, L1210 leukemia ip, survival T/C
Assay: NCI In Vivo Anticancer Drug Screen. Data for tumor model L1210 Leukemia (intraperitoneal) in CD2F1 (CDF1) mice
Conditions: higher = longer survival
Method in brief: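 Vehicle-treated tumor-bearing mice served as controls (C) for compound-treated mice (T). Reported figure is T divided by C.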

[1] = endpoint: mean survival time, dose: 100.0 mg/kg/injection, schedule: Q01DX001 (ip), vehicle: saline with Tween-80
[2] = endpoint: mean survival time, dose: 200.0 mg/kg/injection, schedule: Q01DX001 (ip), vehicle: saline with Tween-80
[3] = endpoint: mean survival time, dose: 400.0 mg/kg/injection, schedule: Q01DX001 (ip), vehicle: saline with Tween-80
[4] = endpoint: mean survival time, dose: 100.0 mg/kg/injection, schedule: Q04DX003 (ip), vehicle: saline with Tween-80
[5] = endpoint: mean survival time, dose: 200.0 mg/kg/injection, schedule: Q04DX003 (ip), vehicle: saline with Tween-80
[6] = endpoint: mean survival time, dose: 400.0 mg/kg/injection, schedule: Q04DX003 (ip), vehicle: saline with Tween-80
[7] = endpoint: mean survival time, dose: 100.0 mg/kg/injection, schedule: Q01DX009 (ip), vehicle: saline with Tween-80
[8] = endpoint: mean survival time, dose: 200.0 mg/kg/injection, schedule: Q01DX009 (ip), vehicle: saline with Tween-80
[9] = endpoint: mean survival time, dose: 400.0 mg/kg/injection, schedule: Q01DX009 (ip), vehicle: saline with Tween-80
[10] = endpoint: mean survival time, dose: 12.5 mg/kg/injection, schedule: Q01DX009 (ip), vehicle: saline with Tween-80
[11] = endpoint: mean survival time, dose: 25.0 mg/kg/injection, schedule: Q01DX009 (ip), vehicle: saline with Tween-80
[12] = endpoint: mean survival time, dose: 50.0 mg/kg/injection, schedule: Q01DX009 (ip), vehicle: saline with Tween-80
[13] = endpoint: mean survival time, dose: 100.0 mg/kg/injection, schedule: Q04DX002 (ip), vehicle: saline with Tween-80
[14] = endpoint: mean survival time, dose: 200.0 mg/kg/injection, schedule: Q04DX002 (ip), vehicle: saline with Tween-80
[15] = endpoint: mean survival time, dose: 400.0 mg/kg/injection, schedule: Q04DX002 (ip), vehicle: saline with Tween-80
[16] = endpoint: mean survival time, dose: 12.5 mg/kg/injection, schedule: Q01DX009 (ip), vehicle: saline
[17] = endpoint: mean survival time, dose: 25.0 mg/kg/injection, schedule: Q01DX009 (ip), vehicle: saline
[18] = endpoint: mean survival time, dose: 50.0 mg/kg/injection, schedule: Q01DX009 (ip), vehicle: saline
[19] = endpoint: mean survival time, dose: 100.0 mg/kg/injection, schedule: Q01DX009 (ip), vehicle: saline
[20] = endpoint: mean survival time, dose: 100.0 mg/kg/injection, schedule: Q04DX003 (ip), vehicle: saline
[21] = endpoint: mean survival time, dose: 200.0 mg/kg/injection, schedule: Q04DX003 (ip), vehicle: saline
[22] = endpoint: mean survival time, dose: 12.5 mg/kg/injection, schedule: Q01DX009 (ip), vehicle: water
[23] = endpoint: mean survival time, dose: 25.0 mg/kg/injection, schedule: Q01DX009 (ip), vehicle: water
[24] = endpoint: mean survival time, dose: 50.0 mg/kg/injection, schedule: Q01DX009 (ip), vehicle: water
[25] = endpoint: mean survival time, dose: 100.0 mg/kg/injection, schedule: Q01DX009 (ip), vehicle: water

Measured: T/C

Nc1ccc(-c2nc(N)[nH]c(=O)c2N)cc1
inactive: [1] 96 % of control | [2] 92 % of control | [3] 88 % of control

c1cc2c3c(cccc3c1)N=S=N2
inactive: [4] 89 % of control | [5] 89 % of control | [6] 86 % of control

c1ccc2c(c1)Cc1nc3ccccc3nc1-2
inactive: [7] 94 % of control | [4] 105 % of control | [8] 94 % of control | [5] 103 % of control | [9] 97 % of control | [6] 97 % of control

CCCCCCOC(CN(C)C)C(Cl)(Cl)Cl (stereo not drawn)
inactive: [10] 96 % of control and 103 % of control | [11] 96 % of control and 100 % of control | [12] 97 % of control and 100 % of control | [7] 96 % of control and 101 % of control | [8] 102 % of control and 105 % of control | [9] 105 % of control

CCCNC(C)(C)C(SS)c1ccc(C(F)(F)F)cc1 (stereo not drawn)
inactive: endpoint: mean survival time, dose: 200.0 mg/kg/injection, schedule: Q04DX003 (ip), vehicle: other 100 % of control | endpoint: mean survival time, dose: 400.0 mg/kg/injection, schedule: Q04DX003 (ip), vehicle: other 90 % of control

C=CCCCCCCCCC(=O)N1CCOCC1
inactive: endpoint: mean survival time, dose: 100.0 mg/kg/injection, schedule: Q04DX002 (ip), vehicle: saline 97 % of control

CC(=O)OC1CCC2(C)C(=CCC3C2CCC2(C)C(C(C)C(=O)O)CCC32)C1 (stereo not drawn)
inactive: [1] 102 % of control | [2] 100 % of control | [3] 96 % of control

CC12CCC=CC1=CC(=O)CC2 (stereo not drawn)
inactive: [13] 96 % of control | [14] 100 % of control | [15] 124 % of control

C[N+](C)(C)c1ncnc2nc[nH]c12
inactive: [16] 98 % of control and 108 % of control | [17] 106 % of control and 108 % of control | [18] 97 % of control and 112 % of control | [19] 120 % of control and 121 % of control

CCCCCCCN(CCCCCCC)CC(OC(C)=O)c1cc2ccccc2c2cc(Br)ccc12 (stereo not drawn)
inactive: [4] 98 % of control | [5] 101 % of control | [6] 104 % of control

CCCCNC(C)(C)C(SSC(c1ccc(Cl)cc1)C(C)(C)NCCCC)c1ccc(Cl)cc1 (stereo not drawn)
inactive: endpoint: mean survival time, dose: 6.25 mg/kg/injection, schedule: Q01DX009 (ip), vehicle: saline with Tween-80 96 % of control | [10] 98 % of control | [11] 96 % of control and 100 % of control | endpoint: mean survival time, dose: 25.0 mg/kg/injection, schedule: Q04DX003 (ip), vehicle: saline with Tween-80 90 % of control | endpoint: mean survival time, dose: 50.0 mg/kg/injection, schedule: Q04DX003 (ip), vehicle: saline with Tween-80 92 % of control | [4] 95 % of control and 96 % of control

NCCCCCBr
inactive: [18] 98 % of control | [19] 90 % of control | endpoint: mean survival time, dose: 200.0 mg/kg/injection, schedule: Q01DX009 (ip), vehicle: saline 98 % of control

CCOC(=O)c1ccc(NC(=O)NC)cc1
inactive: [7] 93 % of control | [4] 92 % of control | [8] 93 % of control | [5] 93 % of control | [9] 93 % of control | [6] 101 % of control

COc1cccc2c1C(=O)c1c(OC)cccc1C2=O
inactive: endpoint: mean survival time, dose: 25.0 mg/kg/injection, schedule: Q01DX005 (ip), vehicle: other 104 % of control | endpoint: mean survival time, dose: 50.0 mg/kg/injection, schedule: Q01DX005 (ip), vehicle: other 101 % of control | endpoint: mean survival time, dose: 100.0 mg/kg/injection, schedule: Q01DX005 (ip), vehicle: other 101 % of control | endpoint: mean survival time, dose: 200.0 mg/kg/injection, schedule: Q01DX005 (ip), vehicle: other 97 % of control | endpoint: mean survival time, dose: 400.0 mg/kg/injection, schedule: Q01DX005 (ip), vehicle: other 93 % of control

CC(O)C(C)(C)CO (stereo not drawn)
inactive: [20] 88 % of control | [21] 88 % of control | endpoint: mean survival time, dose: 400.0 mg/kg/injection, schedule: Q04DX003 (ip), vehicle: saline 93 % of control

CN1CCC(COC(=O)C(O)(c2ccccc2)c2ccccc2)C1 (stereo not drawn)
inactive: [11] 100 % of control | [12] 100 % of control | [7] 94 % of control

O=C(O)C1CSCN1 (stereo not drawn)
inactive: endpoint: mean survival time, dose: 3.12 mg/kg/injection, schedule: Q01DX009 (ip), vehicle: saline 97 % of control | endpoint: mean survival time, dose: 3.12 mg/kg/injection, schedule: Q01DX009 (ip), vehicle: water 101 % of control | endpoint: mean survival time, dose: 6.25 mg/kg/injection, schedule: Q01DX009 (ip), vehicle: saline 98 % of control | endpoint: mean survival time, dose: 6.25 mg/kg/injection, schedule: Q01DX009 (ip), vehicle: water 93 % of control | [16] 96 % of control | [22] 102 % of control | [17] 93 % of control | [23] 98 % of control | [18] 100 % of control | [24] 95 % of control | [19] 95 % of control | [25] 95 % of control | endpoint: median survival time, dose: 3.12 mg/kg/injection, schedule: Q01DX009 (ip), vehicle: Klucel (hydroxypropylcellulose) (HPC) 93 % of control | endpoint: median survival time, dose: 6.25 mg/kg/injection, schedule: Q01DX009 (ip), vehicle: Klucel (hydroxypropylcellulose) (HPC) 95 % of control | endpoint: median survival time, dose: 12.5 mg/kg/injection, schedule: Q01DX009 (ip), vehicle: Klucel (hydroxypropylcellulose) (HPC) 102 % of control | endpoint: median survival time, dose: 15.0 mg/kg/injection, schedule: Q01DX005 (ip), vehicle: saline 108 % of control | endpoint: median survival time, dose: 25.0 mg/kg/injection, schedule: Q01DX009 (ip), vehicle: Klucel (hydroxypropylcellulose) (HPC) 91 % of control | endpoint: median survival time, dose: 50.0 mg/kg/injection, schedule: Q01DX005 (ip), vehicle: saline 101 % of control | endpoint: median survival time, dose: 50.0 mg/kg/injection, schedule: Q01DX009 (ip), vehicle: Klucel (hydroxypropylcellulose) (HPC) 95 % of control | endpoint: median survival time, dose: 60.0 mg/kg/injection, schedule: Q01DX005 (ip), vehicle: saline 103 % of control | endpoint: median survival time, dose: 100.0 mg/kg/injection, schedule: Q01DX009 (ip), vehicle: Klucel (hydroxypropylcellulose) (HPC) 91 % of control | endpoint: median survival time, dose: 120.0 mg/kg/injection, schedule: Q01DX005 (ip), vehicle: saline 100 % of control

O=C(O)C1C2CC3C(C2)C31 (stereo not drawn)
inactive: endpoint: mean survival time, dose: 100.0 mg/kg/injection, schedule: Q01DX009 (ip), vehicle: other 96 % of control | endpoint: mean survival time, dose: 200.0 mg/kg/injection, schedule: Q01DX009 (ip), vehicle: other 104 % of control

OCC1OC(n2ncc3c2N=CN2CCN=C32)C(O)C1O (stereo not drawn)
inactive: [22] 95 % of control | [23] 98 % of control | [24] 102 % of control | [25] 95 % of control | endpoint: mean survival time, dose: 200.0 mg/kg/injection, schedule: Q01DX009 (ip), vehicle: water 95 % of control

O=c1[nH]cnc2c1ncn2CCCCCO
inactive: [1] 95 % of control | [13] 97 % of control | [2] 100 % of control | [14] 102 % of control | [3] 95 % of control | [15] 94 % of control

CC(C)(CNC1=NCCO1)NC1=NCCO1
inactive: [20] 104 % of control | [21] 104 % of control

CC1C(=O)OC2C1CCC1(C)C3OC3C(=O)C3(C)OC231 (stereo not drawn)
inactive: [13] 96 % of control
